The values below come from US20090018134A1, “Compounds - 945” (AstraZeneca AB, priority 2007, published 2009).

The experiment concerns the target T1, mTOR (Homo sapiens, UniProt P42345).
T1 construct: FLAG; made in house
The experiment in a line: In Vitro mTOR Kinase Assay (Echo), Test (a)(ii). To be noted: table of enzyme assay Test (a)(ii); read-out: Test (a)(ii) IC50. The format is biochemical. The method in brief: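 FLAG-tagged human mTOR truncation (residues 1362-2549) expressed in HEK293 cells and FLAG-purified. Compounds dispensed acoustically, reaction 2 h at room temperature, stopped with EDTA. Phosphorylation of biotinylated peptide detected by AlphaScreen with anti-p70 S6K (T389) antibody overnight; IC50 reported.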

T1 sequence (P42345 1362-2549): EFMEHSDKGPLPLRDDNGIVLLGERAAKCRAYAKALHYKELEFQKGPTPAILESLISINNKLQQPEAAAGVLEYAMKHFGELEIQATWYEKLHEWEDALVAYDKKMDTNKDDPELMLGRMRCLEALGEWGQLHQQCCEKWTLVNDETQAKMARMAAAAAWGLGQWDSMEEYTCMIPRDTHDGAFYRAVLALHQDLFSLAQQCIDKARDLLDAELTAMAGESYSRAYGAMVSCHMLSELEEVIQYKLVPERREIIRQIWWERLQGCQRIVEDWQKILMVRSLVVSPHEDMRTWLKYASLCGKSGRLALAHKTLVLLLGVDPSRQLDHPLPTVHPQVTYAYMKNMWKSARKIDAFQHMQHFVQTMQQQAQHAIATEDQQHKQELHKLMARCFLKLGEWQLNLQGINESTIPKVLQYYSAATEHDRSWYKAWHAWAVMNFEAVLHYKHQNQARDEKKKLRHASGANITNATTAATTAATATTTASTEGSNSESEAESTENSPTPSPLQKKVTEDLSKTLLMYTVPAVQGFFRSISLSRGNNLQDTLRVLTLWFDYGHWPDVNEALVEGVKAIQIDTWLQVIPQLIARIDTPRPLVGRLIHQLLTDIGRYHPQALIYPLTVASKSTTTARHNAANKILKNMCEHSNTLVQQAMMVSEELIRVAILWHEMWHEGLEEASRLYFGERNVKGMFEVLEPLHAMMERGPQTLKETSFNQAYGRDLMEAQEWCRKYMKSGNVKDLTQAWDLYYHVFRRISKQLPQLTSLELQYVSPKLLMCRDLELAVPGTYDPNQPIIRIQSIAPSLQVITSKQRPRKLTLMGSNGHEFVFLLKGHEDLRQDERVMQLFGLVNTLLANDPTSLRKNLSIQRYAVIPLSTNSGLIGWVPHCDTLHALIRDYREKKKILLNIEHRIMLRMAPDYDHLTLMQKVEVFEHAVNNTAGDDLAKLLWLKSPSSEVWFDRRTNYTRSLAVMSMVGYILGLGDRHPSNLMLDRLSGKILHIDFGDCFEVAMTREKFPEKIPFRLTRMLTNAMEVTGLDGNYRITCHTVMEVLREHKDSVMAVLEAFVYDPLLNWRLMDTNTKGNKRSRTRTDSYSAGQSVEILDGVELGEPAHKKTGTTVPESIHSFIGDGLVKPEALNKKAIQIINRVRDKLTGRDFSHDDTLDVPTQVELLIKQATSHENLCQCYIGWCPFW

Take `Cc1ccc(F)cc1S(=O)(=O)C1(c2cc(N3CCOC[C@@H]3C)nc(-c3ccc(NC(=O)NCCO)cc3)n2)CC1` [Example 61b, 1-[4-[4-[1-(5-fluoro-2-methylphenyl)sulfonylcyclopropyl]-6-[(3S)-3-methylmorpholin-4-yl]pyrimidin-2-yl]phenyl]-3-(2-hydroxyethyl)urea]: the 50% inhibitory concentration (IC50) turned out to be 13.6 nM. As for `Cc1ccc(F)cc1S(=O)(=O)C1(c2cc(N3CCOC[C@@H]3C)nc(-c3ccc(NC(=O)NCCF)cc3)n2)CC1` [Example 61c, 3-(2-fluoroethyl)-1-[4-[4-[1-(5-fluoro-2-methylphenyl)sulfonylcyclopropyl]-6-[(3S)-3-methylmorpholin-4-yl]pyrimidin-2-yl]phenyl]urea], the half-inhibitory concentration (IC50) is 21.1 nM. As for `Cc1ccc(F)cc1S(=O)(=O)C1(c2cc(N3CCOC[C@@H]3C)nc(-c3ccc(NC(=O)NCC(F)F)cc3)n2)CC1` [Example 61d, 3-(2,2-difluoroethyl)-1-[4-[4-[1-(5-fluoro-2-methylphenyl)sulfonylcyclopropyl]-6-[(3S)-3-methylmorphohn-4-yl]pyrimidin-2-yl]phenyl]urea], the IC50 came to 43.8 nM.

For the compound `CCNC(=O)Nc1ccc(-c2nc(N3CCOC[C@@H]3C)cc(C3(S(=O)(=O)c4cc(F)ccc4C)CC3)n2)cc1` [Example 61e, 1-ethyl-3-[4-[4-[1-(5-fluoro-2-methylphenyl)sulfonylcyclopropyl]-6-[(3S)-3-methylmorpholin-4-yl]pyrimidin-2-yl]phenyl]urea], the concentration for half-maximal inhibition (IC50) stood at 23.7 nM. Next, `Cc1ccc(F)cc1S(=O)(=O)C1(c2cc(N3CCOC[C@@H]3C)nc(-c3ccc(NC(=O)Nc4cnn(C)c4)cc3)n2)CC1` [Example 61f, 1-[4-[4-[1-(5-fluoro-2-methylphenyl)sulfonylcyclopropyl]-6-[(3S)-3-methylmorpholin-4-yl]pyrimidin-2-yl]phenyl]-3-(1-methylpyrazol-4-yl)urea]: 32.8 nM; `C[C@H]1COCCN1c1cc(C2(S(C)(=O)=O)CCC2)nc(-c2ccc(NC(=S)NCCO)cc2)n1` [Example 62, 3-(2-Hydroxyethyl)-1-[4-[4-[(3S)-3-methylmorpholin-4-yl]-6-(1-methylsulfonylcyclobutyl)pyrimidin-2-yl]phenyl]thiourea]: 2.05 nM; `C[C@H]1COCCN1c1cc(C2(S(C)(=O)=O)CCC2)nc(-c2ccc(NC(=S)NCc3ncc[nH]3)cc2)n1` [Example 62a, 3-(1H-imidazol-2-ylmethyl)-1-[4-[4-[(3S)-3-methylmorpholin-4-yl]-6-(1-methylsulfonylcyclobutyl)pyrimi-din-2-yl]phenyl]thiourea]: 39.3 nM. Turning to `C[C@@H](CO)NC(=S)Nc1ccc(-c2nc(N3CCOC[C@@H]3C)cc(C3(S(C)(=O)=O)CCC3)n2)cc1` [Example 62b, 3-[(2S)-1-hydroxypropan-2-yl]-1-[4-[4-[(3S)-3-methylmorpholin-4-yl]-6-(1-methylsulfonylcyclobutyl)pyrimi-din-2-yl]phenyl]thiourea], the IC50 turned out to be 5.46 nM.

With `C[C@H](CO)NC(=S)Nc1ccc(-c2nc(N3CCOC[C@@H]3C)cc(C3(S(C)(=O)=O)CCC3)n2)cc1` [Example 62c, 3-[(2R)-1-hydroxypropan-2-yl]-1-[4-[4-[(3S)-3-methylmorpholin-4-yl]-6-(1-methylsulfonylcyclobutyl)pyrimi-din-2-yl]phenyl]thiourea], the 50% inhibitory concentration (IC50) turned out to be 37.5 nM. As to `C[C@H]1COCCN1c1cc(C2(S(C)(=O)=O)CCC2)nc(-c2ccc(NC(=S)NCCCO)cc2)n1` [Example 62d, 3-(3-hydroxypropyl)-1-[4-[4-[(3S)-3-methylmorpholin-4-yl]-6-(1-methylsulfonylcyclobutyl)pyrimi-din-2-yl]phenyl]thiourea], the IC50 is 22 nM. Next, `C[C@H]1COCCN1c1cc(C2(S(=O)(=O)c3ccncc3)CCC2)nc(-c2ccc(NC(=S)NCc3ncc[nH]3)cc2)n1` [Example 63, 3-(1H-Imidazol-2-ylmethyl)-1-[4-[4-[(3S)-3-methylmorpholin-4-yl]-6-(1-pyridin-4-ylsulfonylcyclobutyl)pyrimidin-2-yl]phenyl]thiourea]: 72.5 nM. On to `C[C@H]1COCCN1c1cc(C2(S(=O)(=O)c3ccc(OC(F)F)cc3)CC2)nc(-c2ccc(NC(=O)NC3CC3)cc2)n1` [Example 64, 3-Cyclopropyl-1-[4-[4-[1-[4-(difluoromethoxy)phenyl]sulfonylcyclopropyl]-6-[(3 S)-3-methylmorpholin-4-yl]pyrimidin-2-yl]phenyl]urea], for which the IC50 came out at 7.85 nM.

In the case of `CNC(=O)Nc1ccc(-c2nc(N3CCOC[C@@H]3C)cc(C3(S(=O)(=O)c4ccc(OC(F)F)cc4)CC3)n2)cc1` [Example 64a, 1-[4-[4-[1-[4-(difluoromethoxy)phenyl]sulfonyl-cyclopropyl]-6-[(3S)-3-methylmorpholin-4-yl]pyrimidin-2-yl]phenyl]-3-methylurea], the IC50 was 5.2 nM.

For `C[C@H]1COCCN1c1cc(C2(S(C)(=O)=O)CC2)nc(-c2ccc(NC(=O)NCCF)cc2)n1` [Example 64aa, 3-(2-fluoroethyl)-1-[4-[4-[(3S)-3-methylmorpholin-4-yl]-6-(1-methylsulfonylcyclopropyl)pyrimi-din-2-yl]phenyl]urea], the concentration for half-maximal inhibition (IC50) worked out at 3.88 nM. Turning to `C[C@H]1COCCN1c1cc(C2(S(C)(=O)=O)CC2)nc(-c2ccc(NC(=O)NCC(F)F)cc2)n1` [Example 64ab, 3-(2,2-difluoroethyl)-1-[4-[4-[(3S)-methylsulfonylcyclopropyl)pyrimi-din-2-yl]phenyl]urea], the IC50 worked out at 9.4 nM.

On to `Cc1csc(S(=O)(=O)C2(c3cc(N4CCOC[C@@H]4C)nc(-c4ccc(NC(=O)N[C@@H](C)CO)cc4)n3)CC2)n1` [Example 64ac, 3-[(2S)-1-hydroxypropan-2-yl]-1-[4-[4-[(3S)-3-methylmorpholin-4-yl]-6-[1-[(4-methyl-1,3-thiazol-2-yl)sulfonyl]cyclopropyl]pyrimidin-2-yl]phenyl]urea], for which the half-maximal inhibitory concentration (IC50) is 5.29 nM. Next, `Cc1csc(S(=O)(=O)C2(c3cc(N4CCOC[C@@H]4C)nc(-c4ccc(NC(=O)NCCF)cc4)n3)CC2)n1` [Example 64ae, 3-(2-fluoroethyl)-1-[4-[4-[(3S)-3-methylmorpholin-4-yl]-6-[1-[(4-methyl-1,3-thiazol-2-yl)sulfonyl]cyclopropyl]pyrimidin-2-yl]phenyl]urea]: 2.13 nM. Take `C[C@H]1COCCN1c1cc(C2(S(=O)(=O)c3ccccn3)CC2)nc(-c2ccc(NC(=O)NCC(F)F)cc2)n1` [Example 64af, 3-(2,2-difluoroethyl)-1-[4-[4-[(3S)-3-methylmorpholin-4-yl]-6-(1-pyridin-2-ylsulfonylcyclopropyl)pyrimidin-2-yl]phenyl]urea]: the half-maximal inhibitory concentration (IC50) turned out to be 3.39 nM. Turning to `C[C@H]1COCCN1c1cc(C2(S(=O)(=O)c3ccccn3)CC2)nc(-c2ccc(NC(=O)Nc3ccon3)cc2)n1` [Example 64ag, 1-[4-[4-[(3S)-3-methylmorpholin-4-yl]-6-(1-pyridin-2-ylsulfonylcyclopropyl)pyrimidin-2-yl]phenyl]-3-(1,2-oxazol-3-yl)urea], the 50% inhibitory concentration (IC50) came out at 2.81 nM. As to `C[C@H]1COCCN1c1cc(C2(S(=O)(=O)c3ccc(Cl)cc3)CC2)nc(-c2ccc(NC(=O)NCC(F)F)cc2)n1` [Example 64ah, 1-[4-[4-[1-(4-chlorophenyl)sulfonylcyclopropyl]-6-[(3S)-3-methylmorpholin-4-yl]pyrimidin-2-yl]phenyl]-3-(2,2-difluoroethyl)urea], the IC50 was 6.84 nM. Turning to `C[C@H]1COCCN1c1cc(C2(S(=O)(=O)c3ccc(Cl)cc3)CC2)nc(-c2ccc(NC(=O)Nc3ccon3)cc2)n1` [Example 64ai, 1-[4-[4-[1-(4-chlorophenyl)sulfonylcyclopropyl]-6-[(3S)-3-methylmorpholin-4-yl]pyrimidin-2-yl]phenyl]-3-(1,2-oxazol-3-yl)urea], the IC50 worked out at 5.67 nM.

Turning to `C[C@H]1COCCN1c1cc(C2(S(=O)(=O)CCCO)CC2)nc(-c2ccc(NC(=O)NCCF)cc2)n1` [Example 64aj, 3-(2-fluoroethyl)-1-[4-[4-[1-(3-hydroxypropylsulfonyl)cyclopro-pyl]-6-[(3S)-3-methylmorpholin-4-yl]pyrimidin-2-yl]phenyl]urea], the half-inhibitory concentration (IC50) turned out to be 7.78 nM.

Take `C[C@H]1COCCN1c1cc(C2(S(=O)(=O)CCCO)CC2)nc(-c2ccc(NC(=O)Nc3ccon3)cc2)n1` [Example 64ak, 1-[4-[4-[1-(3-hydroxypropylsulfonyl)cyclopro-pyl]-6-[(3S)-3-methylmorpholin-4-yl]pyrimidin-2-yl]phenyl]-3-(1,2-oxazol-3-yl)urea]: the 50% inhibitory concentration (IC50) worked out at 1.61 nM. With `C[C@H]1COCCN1c1cc(C2(S(=O)(=O)c3cnn(C(F)F)c3)CC2)nc(-c2ccc(NC(=O)NCCO)cc2)n1` [Example 64al, 1-[4-[4-[1-[1-(difluoromethyl)pyrazol-4-yl]sulfonylcyclopropyl]-6-[(3S)-3-methylmorpholin-4-yl]pyrimidin-2-yl]phenyl]-3-(2-hydroxyethyl)urea], the IC50 turned out to be 5.58 nM.

Consider `CCNC(=O)Nc1ccc(-c2nc(N3CCOC[C@@H]3C)cc(C3(S(=O)(=O)c4ccc(OC(F)F)cc4)CC3)n2)cc1` [Example 64b, 3-[4-[4-[1-[4-(difluoromethoxy)phenyl]sulfonyl-cyclopropyl]-6-[(3S)-3-methylmorpholin-4-yl]pyrimidin-2-yl]phenyl]-1-ethylurea], for which the IC50 was found to be 6.78 nM. Next, `C[C@H]1COCCN1c1cc(C2(S(=O)(=O)c3ccc(OC(F)F)cc3)CC2)nc(-c2ccc(NC(=O)NCCO)cc2)n1` [Example 64c, 1-[4-[4-[1-[4-(difluoromethoxy)phenyl]sulfonyl-cyclopropyl]-6-[(3S)-3-methylmorpholin-4-yl]pyrimidin-2-yl]phenyl]-3-(2-hydroxyethyl)urea]: 2.15 nM; `C[C@H]1COCCN1c1cc(C2(S(=O)(=O)c3ccc(OC(F)F)cc3)CC2)nc(-c2ccc(NC(=O)Nc3cnn(C)c3)cc2)n1` [Example 64d, 1-[4-[4-[1-[4-(difluoromethoxy)phenyl]sulfonyl-cyclopropyl]-6-[(3S)-3-methylmorpholin-4-yl]pyrimidin-2-yl]phenyl]-3-(1-methylpyrazol-4-yl)urea]: 6.7 nM.

As usually defined, the IC50 is the concentration at which inhibition is half-maximal.
